In publication PMC10003360, “Antiviral Effect of Ginsenosides rk1 against Influenza a Virus Infection by Targeting the Hemagglutinin 1-Mediated Virus Attachment” (International Journal of Molecular Sciences, 2023):

Biological target: T1, HA1 (Influenza A virus (A/Puerto Rico/8/1934(H1N1)), UniProt P03452)
T1 construct: gene HA; HA1 subunit alone, cut from precursor HA0; purchased from Sino Biological; immobilised on sensor chip
Test: biochemical
Type: binding

T1 sequence (P03452 18-342 limits assumed): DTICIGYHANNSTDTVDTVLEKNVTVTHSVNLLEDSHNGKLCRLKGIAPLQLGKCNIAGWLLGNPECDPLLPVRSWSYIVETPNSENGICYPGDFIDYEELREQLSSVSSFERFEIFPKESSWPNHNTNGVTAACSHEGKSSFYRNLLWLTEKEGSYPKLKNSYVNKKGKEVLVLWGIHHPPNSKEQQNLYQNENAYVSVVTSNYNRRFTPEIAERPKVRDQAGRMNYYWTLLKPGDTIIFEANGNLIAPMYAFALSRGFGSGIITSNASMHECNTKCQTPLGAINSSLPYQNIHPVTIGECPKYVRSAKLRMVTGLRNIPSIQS

C=C(CCC=C(C)C)[C@H]1CC[C@]2(C)[C@@H]1[C@H](O)C[C@@H]1[C@@]3(C)CC[C@H](O[C@@H]4O[C@H](CO)[C@@H](O)[C@H](O)[C@H]4O[C@@H]4O[C@H](CO)[C@@H](O)[C@H](O)[C@H]4O)C(C)(C)[C@@H]3CC[C@]12C [G-rk1, ginsenoside rk1]
Kd: 93.3 nM
